From ChEMBL document CHEMBL1146762, “Structure-activity relationships of trans-cinnamic acid derivatives on alpha-glucosidase inhibition” (Bioorg Med Chem Lett, 2004) come the findings set out here.

This experiment can be described thus: Inhibition of alpha-glucosidase activity. Details: species or system Saccharomyces cerevisiae.

For the compound `O=C(O)/C=C/c1ccc(O)cc1` [COUMARIC ACID], the IC50 came to 200 µM.
As for `O=C(O)/C=C/c1ccc(F)cc1`, the figure is 270 µM; as for `CCCCCCOc1ccc(/C=C/C(=O)O)cc1`, above 5000 µM; as for `COc1ccc(/C=C/C(=O)O)cc1` [4-METHOXYCINNAMIC ACID], 40 µM.
As for `CCOC(=O)/C=C/c1ccc(OC)cc1` [4-METHOXY ETHYL CINNAMATE], the figure is 50 µM; as for `O=C(O)/C=C/c1ccc(OCc2ccccc2)cc1`, above 5000 µM.
`O=C(O)/C=C/c1ccc([N+](=O)[O-])cc1` came in with an IC50 above 5000 µM.
In turn, `O=C(O)/C=C/c1ccccc1O` [O-COUMARIC ACID] came in with an IC50 above 5000 µM.
As for `COc1ccccc1/C=C/C(=O)O` [COUMARINIC ACID METHYL ETHER], the figure is 4340 µM; as for `O=C(O)/C=C/c1ccc(Cl)cc1`, 390 µM.
As for `O=C(O)/C=C/c1cccc(O)c1`, the figure is 1270 µM.
Regarding `COc1cccc(/C=C/C(=O)O)c1`, the IC50 was determined as 580 µM.
Then `OC[C@H]1NC[C@H](O)[C@@H](O)[C@@H]1O` [DUVOGLUSTAT], with 5600 µM.
In turn, `O=C(O)/C=C/c1ccccc1` [CINNAMIC ACID] had an IC50 above 5000 µM.
Then `CCOC(=O)/C=C/c1ccccc1` [ETHYL CINNAMATE], with above 5000 µM; and `O=C(O)/C=C/c1ccc(Br)cc1`, with above 5000 µM.
Then `O=C(O)/C=C/c1ccc(Oc2ccccc2)cc1`, with 440 µM; and `CCCCOc1ccc(/C=C/C(=O)O)cc1`, with above 5000 µM.
